The target of one test is autolysin E (AtlE) (Staphylococcus aureus, UniProt A0A0H3JT72). Briefly: Surface plasmon resonance (SPR) binding to immobilized AtlE. Conditions: for maximal SPR response compared with the maximal theoretical response: theoretical response calculated from molecular masses of AtlE and compound, surfactant P20 in running buffer. The protocol: The potential inhibitory effect of compounds that bind to AtlE was measured using surface plasmon resonance (SPR). The protein was covalently attached to the surface of the CM5 sensor chip (5200 response units (RU)). The compounds were prepared as 20 mM stock solutions in DMSO and diluted with HEPES running buffer with 2.5% DMSO. Some compounds were less soluble, which was also predicted by the in silico programs and QSAR models for aqueous solubility (see Supplementary Table S3).
The binding of iminosugars was recorded and analyzed using the Biacore T200 3.2.1 software v3.2.1 Evaluation (for results, see Table 1). […] Therefore, for further testing of AtlE binding, the iminosugar derivatives with a lipophilic tail were chosen (1,5-dideoxy-1,5-imino-D-xylitol derivatives (DIX)).
Three compounds, 1, 3 and 8, were identified as AtlE binders. Two of them, 1 and 3, were titrated at eight different concentrations, while compound 8 was titrated firstly at six different concentrations (Figure 4a) and secondly at seven concentrations (Figure S2). The equilibrium dissociation constant KD was estimated using the 1:1 steady-state affinity binding model, with the graphs showing the response units as a function of inhibitor concentration (Figure 4b). […] The maximal theoretical response was calculated using the molecular masses of AtlE and the compounds, respectively. […] Due to the amphiphilicity of the compounds with a hydrophilic sugar unit in the head and a hydrophobic fatty acid residue in the tail, we can assume that both compounds can form oligomeric micelles. To prevent the formation of micelles, we added a surfactant P20 to the running buffer, but the maximum theoretical binding to AtlE was not reached for compounds 1 and 3. This brings into question the true nature of their binding and should be verified by another independent method.
Figure 4 (a) Representative SPR sensorgrams (response curves) and (b) representative saturation curves with evaluated KD for compounds 1, 3 and 8 at different concentrations. SPR analysis of compound 1, 3 and 8 interactions with the immobilized AtlE. Compounds were injected across immobilized AtlE in serial dilutions for 60 s at a rate of […], and the dissociation was followed for 50 s. Sensorgrams are shown along with the apparent equilibrium dissociation constant (KD) determined from the response curves as a function of the compound concentration injected across AtlE. KD values are the mean ± standard deviation of three titrations. The data were fitted to the steady-state affinity binding model.
Surface plasmon resonance (SPR) experiments were performed at 25 °C using a Biacore T200 (Biacore, GE Healthcare, Uppsala, Sweden) instrument with Series S sensor chip CM5 (GE Healthcare). […]

In test [1] the target is α-Galactosidase (from green coffee beans). The following applies: cited from earlier work.
The target of test [2] is β-galactocerebrosidase (GALC). Conditions: cited from earlier work.
Test [3] addresses human recombinant β-glucocerebrosidase (GBA). Conditions: cited from earlier work.
In test [4] the target is β-Galactosidase (from bovine liver). The following applies: cited from earlier work.
The next test has as its system E. coli (ATCC 25922). Put plainly: Minimal inhibitory concentration, broth microdilution (negative control strain). The format is cell-based. Conditions: Escherichia coli, ATCC25922; broth microdilution, 20 h at 35 °C; read-out: MIC E. coli ATCC25922. How it is done: (§1) The minimal inhibitory concentrations (MICs) were determined against the bacterial strains S. aureus (ATCC 29213) and E. coli (ATCC 25922), and the results are presented in Table S6.
(§2) Antimicrobial testing was carried out by the broth microdilution method in a 96-well plate format following the CLSI guidelines and European Committee for Antimicrobial Susceptibility Testing (EUCAST) recommendations. Bacterial suspension of a specific bacterial strain equivalent to 0.5 McFarland turbidity standard was diluted with cation-adjusted Mueller Hinton broth to obtain a final inoculum of 10^5 CFU/mL. Compounds dissolved in 20% DMSO and inoculum were mixed together and incubated for 20 h at 35 °C. After incubation, the minimal inhibitory concentration (MIC) values were determined by visual inspection as the lowest dilution of compounds showing no turbidity. The MICs were determined against S. aureus (ATCC 29213) and E. coli (ATCC 25922) bacterial strains. Tetracycline was used as a positive control on every assay plate, showing MICs of 0.5 µg/mL and 1 µg/mL for S. aureus and E. coli, respectively.

A further test deals with naringinase (Nar). Conditions: cited from earlier work.
The target of test [5] is β-Glucosidase (from almond). The following applies: cited from earlier work.
The next test deals with S. aureus (ATCC 29213). Briefly: Minimal inhibitory concentration, broth microdilution. The format is cell-based, Staphylococcus aureus. The following applies: for MIC: Staphylococcus aureus, ATCC29213, broth microdilution, 20 h at 35 °C, read-out: MIC S. aureus ATCC29213. How it is done: as §1, §2
Background: In broth dilution the organism is exposed to a series of concentrations in liquid medium.

The target in test [6] is α-Glucosidase (from baker's yeast). Conditions: cited from earlier work.
[7] abbreviates: pH 6.8, p-nitrophenyl-a-d-galactopyranoside, footnote **.
Where [8] appears, read: pH 5.2, footnote **, read-out: IC50 GBA pH 5.2.
[9] abbreviates: pH 7.0, footnote **, read-out: IC50 GBA pH 7.0.
[10] abbreviates: pH 5.0, p-nitrophenyl-b-d-glucopyranoside, footnote **.
[11] abbreviates: pH 7.2, p-nitrophenyl-a-d-glucopyranoside, footnote **.

Values after ≈ are worked out from the molar mass of the structure shown. “Also recorded” adds a separate entry of the source. Like-named read-outs stand apart in the source and are kept apart here.

autolysin E (AtlE), sequence (A0A0H3JT72 entry or part of it): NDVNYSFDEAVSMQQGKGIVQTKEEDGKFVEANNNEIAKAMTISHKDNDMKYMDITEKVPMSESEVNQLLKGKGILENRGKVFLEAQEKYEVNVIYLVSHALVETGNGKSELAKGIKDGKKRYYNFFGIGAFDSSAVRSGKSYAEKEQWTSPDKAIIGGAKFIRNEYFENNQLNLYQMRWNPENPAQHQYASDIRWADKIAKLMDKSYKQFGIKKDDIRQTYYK

As for `OC[C@H]1NC[C@H](O)[C@@H](O)[C@@H]1O` [1-deoxynojirimycin, reference compound], the “binding of AtlE (SPR)” value on autolysin E (AtlE) (tested at 100 µM and 1 mM) was “no binding of AtlE; also recorded: did not inhibit AtlE”.

The IC50 is the midpoint of a concentration-inhibition curve. By MIC is commonly meant the lowest concentration that inhibits growth of the organism. As to `CCCCCCCCCCCCCCN=C1OCC2C(O)C(O)C(O)CN12` (stereo not drawn) [Compound 1], the “maximal SPR response compared with the maximal theoretical response” value on autolysin E (AtlE) was “higher maximal response than expected; also recorded: higher than expected maximum response”. Also, the IC50 in [1] (pH 6.8, p-nitrophenyl-α-D-galactopyranoside, footnote *) was more than 100 µM; in test [2] (footnote *), more than 10 µM; in test [3] (pH 5.2, footnote *, read-out: IC50 GBA pH 5.2), 0.02 ± 0.001 µM; in test [3] (pH 7.0, footnote *, read-out: IC50 GBA pH 7.0), 0.001 ± 0.001 µM; in [4] (footnote *), 0.1 ± 0.03 µM; at naringinase (Nar) (footnote *), 0.2 ± 0.01 µM. Moreover, the IC50 in test [5] (pH 5.0, p-nitrophenyl-β-D-glucopyranoside, footnote *) was 0.7 ± 0.03 µM; in test [6] (pH 7.2, p-nitrophenyl-α-D-glucopyranoside, footnote *), more than 100 µM. Besides, the “IC50 human recombinant β-glucocerebrosidase” value in test [3] (in words) is recorded as “low nanomolar range”. For the same molecule, the MIC is 125 µM (≈ 48.1 µg/mL) in the test on E. coli (ATCC 25922) and 8 µM (≈ 3.08 µg/mL) in the test with S. aureus (ATCC 29213). Besides, the “antibacterial activity against S. aureus ATCC 29213” value in the test with S. aureus (ATCC 29213) (in words) was “modest antibacterial activities”.

For the molecule `CCCCCCCCCCNC(=N)N1CC(O)C(O)C(O)C1` (stereo not drawn) [Compound 3], the “maximal SPR response compared with the maximal theoretical response” value at autolysin E (AtlE) is on record as “higher maximal response than expected; also recorded: higher than expected maximum response”. Also, the IC50 in [1] (setting [7]) was more than 100 µM; in test [2] (footnote **), more than 10 µM; in test [3] (setting [8]), 0.09 ± 0.01 µM; in test [3] (setting [9]) it was 0.03 ± 0.01 µM; in [4] (footnote **) it was 2.7 ± 0.2 µM; at naringinase (Nar) (footnote **) it was 41.5 ± 0.2 µM. In addition, the IC50 in test [5] (setting [10]) was 26 ± 0.9 µM; in [6] (setting [11]), more than 100 µM. In test [3] (in words), the “IC50 human recombinant β-glucocerebrosidase” value was “low nanomolar range”. The MIC with E. coli (ATCC 25922) is more than 500 µM; in the test on S. aureus (ATCC 29213) it was 500 µM (≈ 158 µg/mL).

`CCCCCCCCCCNC(=O)N1CC(O)C(O)C(O)C1` (stereo not drawn) [Compound 8]: the “maximal SPR response compared with the maximal theoretical response” value at autolysin E (AtlE) is listed as “achieved the expected maximal theoretical response; also recorded: expected maximum theoretical response was not exceeded”. For the same molecule, the 50% inhibitory concentration (IC50) in test [1] (setting [7]) was more than 100 µM; in [2] (footnote **) it was more than 10 µM; in test [3] (setting [8]) it was more than 10 µM; in test [3] (setting [9]), more than 10 µM; in test [4] (footnote **), 10.4 ± 0.9 µM; at naringinase (Nar) (footnote **), more than 100 µM. The IC50 in [5] (setting [10]) and in test [6] (setting [11]) was more than 100 µM each time. Further, the “inhibitor of β-glucocerebrosidase” value in test [3] (in words, previous studies) is reported as “not as an inhibitor of β-glucocerebrosidase”. In test [3] (in words), the “binding of human recombinant β-glucocerebrosidase” value is listed as “no binding of this enzyme was observed”. Moreover, the MIC with E. coli (ATCC 25922) and with S. aureus (ATCC 29213) was more than 500 µM in each case.

The values are drawn from PMC11350809, “Targeting N-Acetylglucosaminidase in Staphylococcus aureus with Iminosugar Inhibitors” (Antibiotics, 2024).
